Data from US5430062A, “Stilbene derivatives as anticancer agents” (priority 1993, dated 1995).
Counter-ions that a name gives are not always drawn. Like-named read-outs stand apart in the source and are kept apart here.

Tests used:
tubulin [1] = test: Inhibition of tubulin polymerization (turbidimetry); assay type: biochemical, bovine
M14 melanoma = test: Cytotoxicity, M14
SF-295 CNS cancer = test: Cytotoxicity, SF-295; conditions: read-out: cytotoxicity GI50, SF-295, 50% growth inhibition, average of two determinations, 8640 min, 8640 min
CAKI-1 renal cancer = test: Cytotoxicity, CAKI-1
[2] = test system: DMS 273 small cell lung cancer; test: Cytotoxicity, DMS 273; conditions: read-out: cytotoxicity GI50, DMS 273, 50% growth inhibition, average of two determinations, 8640 min, 8640 min
OVCAR-3 ovarian cancer = test: Cytotoxicity, OVCAR-3
COLO 205 colon cancer = test: Cytotoxicity, COLO 205; conditions: read-out: cytotoxicity GI50, COLO 205, 50% growth inhibition, average of two determinations, 8640 min, 8640 min
HL-60 (TB) leukemia = test: Cytotoxicity, HL-60(TB) leukemia; conditions: read-out: cytotoxicity GI50, HL-60(TB), 50% growth inhibition, average of two determinations, 8640 min, 8640 min
tubulin [3] = test: Inhibition of [3H]colchicine binding to tubulin (DEAE-filter); design: species or system bovine
tubulin [4] = conditions: cited from earlier work
MLM melanoma = test: MTT cytotoxicity assay, MLM; conditions: […], read-out: Cytotoxicity ED50, MLM
A-549 lung carcinoma = test: MTT cytotoxicity assay, A-549; conditions: Homo sapiens, A549, […], read-out: Cytotoxicity ED50, A-549
MCF-7 breast carcinoma = test: MTT cytotoxicity assay, MCF-7; conditions: Homo sapiens, MCF7, […], read-out: Cytotoxicity ED50, MCF-7
[5] = test system: HT-29 colon adenocarcinoma; test: MTT cytotoxicity assay, HT-29; conditions: Homo sapiens, HT-29, […], read-out: Cytotoxicity ED50, HT-29
[6] = Stability in DMSO solution at room temperature (NMR); assay type: physicochemical; conditions: protected from light, read-out: formation of the cis isomer (1a)
Experimental: The cytotoxic compounds gave reproducible results in the tubulin polymerization assay with the exception of the trans stilbenes 1b and 6n. […] The cytotoxic properties of these two agents may similarly result from chemical changes in solution. […] The ratio of 6n:5n was 1:1 after 24 hours of the dissolution of pure 6n in DMSO at room temperature.

[7] = Table X, different glutamate preparation (1M monosodium glutamate and GTP), Hydrochloride, read-out: inhibn of tubulin polymn IC50 (±SD)
[8] = benzylanilines, Table X series, read-out: tubulin polymerization IC50
[9] = read-out: cytotoxicity GI50, M14, 50% growth inhibition, average of two determinations, 8640 min, Hydrochloride
[10] = read-out: cytotoxicity GI50, CAKI-1, 50% growth inhibition, average of two determinations, 8640 min, Hydrochloride
[11] = read-out: cytotoxicity GI50, OVCAR-3, 50% growth inhibition, average of two determinations, 8640 min, Hydrochloride
[12] = Table X, different glutamate preparation (1M monosodium glutamate and GTP), read-out: inhibn of tubulin polymn IC50 (±SD)
[13] = read-out: cytotoxicity GI50, M14; 50% growth inhibition; average of two determinations; 8640 min
[14] = read-out: cytotoxicity GI50, CAKI-1; 50% growth inhibition; average of two determinations; 8640 min
[15] = read-out: cytotoxicity GI50, OVCAR-3; 50% growth inhibition; average of two determinations; 8640 min
[16] = read-out: cytotoxicity GI50, M14, 50% growth inhibition, average of two determinations, 8640 min
[17] = read-out: cytotoxicity GI50, CAKI-1, 50% growth inhibition, average of two determinations, 8640 min
[18] = read-out: cytotoxicity GI50, OVCAR-3, 50% growth inhibition, average of two determinations, 8640 min

SMILES	IC50 (tubulin [1]; [8])	IC50 (tubulin [1]; [12])	GI50 (M14 melanoma; [13])	GI50 (SF-295 CNS cancer)	GI50 (CAKI-1 renal cancer; [14])	GI50 [2]	GI50 (COLO 205 colon cancer)	GI50 (HL-60 (TB) leukemia)	further results
COc1cc(CNc2ccc(SC)cc2)cc(OC)c1OC [110e, 4-Methylthio-N-(3,4,5-trimethoxybenzyl)aniline Hydrochloride]	16 µM								IC50 (tubulin [1]; [7]): 16 µM; GI50 (M14 melanoma; [9]): 4.84 µM; GI50 (SF-295 CNS cancer; Hydrochloride): 3.41 µM; GI50 (CAKI-1 renal cancer; [10]): 16.3 µM; GI50 ([2]; Hydrochloride): 4.91 µM; GI50 (OVCAR-3 ovarian cancer; [11]): 4.85 µM; GI50 (COLO 205 colon cancer; Hydrochloride): 3.6 µM; GI50 (HL-60 (TB) leukemia; Hydrochloride): 3.29 µM
CCCc1ccc(N=Cc2cc(OC)c(OC)c(OC)c2)cc1 [108g, 4-n-Propyl-N-(3,4,5-trimethoxybenzylidene)aniline]		> 40 µM	> 100 µM	> 100 µM	> 100 µM	> 100 µM	> 100 µM	22.6 µM	GI50 (OVCAR-3 ovarian cancer; [15]): > 100 µM
COc1ccc(NCc2cc(OC)c(OC)c(OC)c2)cc1 [110c, 4-Methoxy-N-(3,4,5-trimethoxybenzyl)aniline Hydrochloride]	8.9 µM		2.38 µM						IC50 (tubulin [1]; [7]): 8.9 µM; GI50 (SF-295 CNS cancer; Hydrochloride): 2.32 µM; GI50 (CAKI-1 renal cancer; [10]): 2.5 µM; GI50 ([2]; Hydrochloride): 0.534 µM; GI50 (OVCAR-3 ovarian cancer; [11]): 1.96 µM; GI50 (COLO 205 colon cancer; Hydrochloride): 1.66 µM; GI50 (HL-60 (TB) leukemia; Hydrochloride): 0.834 µM
CCOc1ccc(N=Cc2cc(OC)c(OC)c(OC)c2)cc1 [108d, 4-Ethoxy-N-(3,4,5-trimethoxybenzylidene)aniline]		> 40 µM	> 100 µM	> 100 µM	> 100 µM	> 100 µM		> 100 µM	GI50 (OVCAR-3 ovarian cancer; [15]): > 100 µM
COc1cc(CNc2ccc(SC)cc2)cc(OC)c1OC [109e, 4-Methylthio-N-(3,4,5-trimethoxybenzyl)aniline]		> 40 µM		7.28 µM		3.09 µM	3.88 µM	3.7 µM	GI50 (M14 melanoma; [16]): 5.26 µM; GI50 (CAKI-1 renal cancer; [17]): 32 µM; GI50 (OVCAR-3 ovarian cancer; [18]): 5.93 µM
COc1ccc(/C=C\c2cc(OC)c(OC)c(OC)c2)cc1O [compound 1a, reference compound]									inhibition of colchicine binding (in words) (tubulin [3]): nearly total inhibition of colchicine binding; competitive inhibition of colchicine binding (tubulin [4]): competitively inhibit the binding of radiolabeled colchicine to tubulin; IC50 (MLM melanoma): 14 pM; IC50 (A-549 lung carcinoma): 1.2 pM; IC50 (MCF-7 breast carcinoma): 3.8 pM; IC50 [5]: 12 pM
CCc1ccc(N=Cc2cc(OC)c(OC)c(OC)c2)cc1 [108b, 4-Ethyl-N-(3,4,5-trimethoxybenzylidene)aniline]		> 40 µM	> 100 µM	> 100 µM	> 100 µM	> 100 µM			GI50 (OVCAR-3 ovarian cancer; [15]): > 100 µM
CCc1ccc(NCc2cc(OC)c(OC)c(OC)c2)cc1 [109b, 4-Ethyl-N-(3,4,5-trimethoxybenzyl)aniline]	3 µM	3 µM		0.266 µM	0.354 µM	0.135 µM	0.344 µM	0.168 µM	GI50 (M14 melanoma; [16]): 0.315 µM; GI50 (OVCAR-3 ovarian cancer; [18]): 0.283 µM
COc1ccc(/C=C/c2cc(OC)c(OC)c(OC)c2)cc1O [compound 1b, reference compound]									degraded at […] ([6]; four weeks): ~10%; degraded at 336 h ([6]; two weeks): ~3%
CCc1ccc(NCc2cc(OC)c(OC)c(OC)c2)cc1 [110b, 4-Ethyl-N-(3,4,5-trimethoxybenzyl)aniline Hydrochloride]									IC50 (tubulin [1]; [7]): 7.2 µM; IC50 (tubulin [1]; benzylanilines, Table X series, Hydrochloride, read-out: tubulin polymerization IC50): 7.2 µM; GI50 (M14 melanoma; [9]): 0.437 µM; GI50 (SF-295 CNS cancer; Hydrochloride): 0.339 µM; GI50 ([2]; Hydrochloride): 0.818 µM; GI50 (OVCAR-3 ovarian cancer; [11]): 0.405 µM; GI50 (COLO 205 colon cancer; Hydrochloride): 0.352 µM; GI50 (HL-60 (TB) leukemia; Hydrochloride): 0.245 µM
CCOc1ccc(NCc2cc(OC)c(OC)c(OC)c2)cc1 [110d, 4-Ethoxy-N-(3,4,5-trimethoxybenzyl)aniline Hydrochloride]	11 µM								IC50 (tubulin [1]; [7]): 11 µM; GI50 (M14 melanoma; [9]): 0.532 µM; GI50 (SF-295 CNS cancer; Hydrochloride): 0.418 µM; GI50 (CAKI-1 renal cancer; [10]): 1.05 µM; GI50 ([2]; Hydrochloride): 0.961 µM; GI50 (OVCAR-3 ovarian cancer; [11]): 0.464 µM; GI50 (COLO 205 colon cancer; Hydrochloride): 0.538 µM; GI50 (HL-60 (TB) leukemia; Hydrochloride): 0.448 µM
COc1ccc(NCc2cc(OC)c(OC)c(OC)c2)cc1 [109c, 4-Methoxy-N-(3,4,5-trimethoxybenzyl)aniline]		4.6 µM		0.266 µM		0.141 µM	0.235 µM	0.115 µM	GI50 (CAKI-1 renal cancer; [17]): 0.458 µM; GI50 (OVCAR-3 ovarian cancer; [18]): 0.363 µM
CCOc1ccc(NCc2cc(OC)c(OC)c(OC)c2)cc1 [109d, 4-Ethoxy-N-(3,4,5-trimethoxybenzyl)aniline]		12 µM		0.274 µM	2.04 µM	0.296 µM	0.432 µM	0.296 µM	GI50 (M14 melanoma; [16]): 0.403 µM; GI50 (OVCAR-3 ovarian cancer; [18]): 0.34 µM
COc1cc(CNc2ccc(C)cc2)cc(OC)c1OC [109a, 4-Methyl-N-(3,4,5-trimethoxybenzyl)aniline]	6 µM	6 µM		0.163 µM		0.0926 µM	0.152 µM	0.122 µM	GI50 (M14 melanoma; [16]): 0.15 µM
COc1cc(C=Nc2ccc(C(C)C)cc2)cc(OC)c1OC [108f, 4-Isopropyl-N-(3,4,5-trimethoxybenzylidene)aniline]		> 40 µM	> 100 µM	> 100 µM	> 100 µM	52.5 µM	> 100 µM	> 100 µM	GI50 (OVCAR-3 ovarian cancer; [15]): > 100 µM
